≈ marks a conversion by molar mass, not a printed value.
Key:
Type in all cases: cell-based
[1] = tested on: Enterococcus faecium ATCC 700221 (VRE); assay: Broth microdilution MIC, E. faecium ATCC 700221 (VRE); set-up: MIC E. faecium ATCC 700221 (VRE): unit: ug/mL; details: broth microdilution, 37° C., 20 hours; for MIC: Enterococcus faecium, read-out: MIC E. faecium ATCC 700221 (VRE)
Procedure, shortened: (§1)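 Broth microdilution in strain-specific test medium with ~5.0×10^5 cfu/ml inoculum, 1% DMSO and two-fold compound dilutions from 64 to 0.0625 μg/ml. Plates were held 20 hours at 37° C in ambient air. S. pneumoniae colonies were grown beforehand on blood agar in 5% CO2.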

[2] = tested on: Escherichia coli ATCC 25922; assay: Broth microdilution MIC, E. coli ATCC 25922 (MHIIB w & w/o 4 mM EDTA); details: broth microdilution, 37° C., 20 hours; for MIC: Escherichia coli, ATCC25922, without EDTA, read-out: MIC E. coli ATCC 25922; for MIC E. coli ATCC 25922 + 4 mM EDTA: with 4 mM EDTA
Procedure, shortened: as §1

[3] = tested on: Streptococcus pneumoniae ATCC 49619; assay: Broth microdilution MIC, S. pneumoniae ATCC 49619; details: ATCC49619, broth microdilution, 37° C., 20 hours, read-out: MIC S. pneumoniae ATCC 49619
Procedure, shortened: as §1

[4] = tested on: Staphylococcus aureus ATCC 29213 (MSSA); assay: Broth microdilution MIC, S. aureus ATCC 29213 (MSSA); details: broth microdilution, 37° C., 20 hours, read-out: MIC S. aureus ATCC 29213 (MSSA)
Procedure, shortened: as §1

[5] = tested on: Enterococcus faecalis ATCC 29212; assay: Broth microdilution MIC, E. faecalis ATCC 29212; details: ATCC29212, broth microdilution, 37° C., 20 hours, read-out: MIC E. faecalis ATCC 29212
Procedure, shortened: as §1

[6] = tested on: Bacillus subtilis ATCC 6633; assay: Broth microdilution MIC, B. subtilis ATCC 6633; details: ATCC6633, broth microdilution, 37° C., 20 hours, read-out: MIC B. subtilis ATCC 6633
Procedure, shortened: as §1

[7] = tested on: Staphylococcus aureus NRS384 (MRSA); assay: Broth microdilution MIC, S. aureus NRS384 (MRSA); set-up: MIC NRS 384 (MRSA): unit not given here; details: broth microdilution, 37° C., 20 hours; for MIC: Staphylococcus aureus, read-out: MIC NRS 384 (MRSA)
Procedure, shortened: as §1

SMILES | MIC [1] | MIC [2] | MIC E. coli ATCC 25922 + 4 mM EDTA [2] | MIC [3] | MIC [4] | MIC [5] | MIC [6] | MIC [7] | MIC E. faecium ATCC 700221 (VRE) [1] | MIC NRS 384 (MRSA) [7]
O=c1[nH]c(NCc2ccc(Cl)c(Cl)c2)nc2cnn(CCS(=O)(=O)CCO)c12 [Compound 164, 5-((3,4-dichlorobenzyl)amino)-1-(2-((2-hydroxyethyl)sulfonyl)ethyl)-1H-pyrazolo[4,3-d]pyrimidin-7(6H)-one] | 16 µg/mL (≈ 35.8 µM) | > 64 µg/mL | >64 µg/mL | 4 µg/mL (≈ 8.96 µM) | 32 µg/mL (≈ 71.7 µM) | 32 µg/mL (≈ 71.7 µM) | 16 µg/mL (≈ 35.8 µM) | 64 µg/mL (≈ 143 µM) |  | 
CS(=O)(=O)NC(=O)Cn1ncc2nc(NCc3ccc(Cl)c(Cl)c3)[nH]c(=O)c21 [Compound 165, 2-(5-((3,4-dichlorobenzyl)amino)-7-oxo-6,7-dihydro-1H-pyrazolo[4,3-d]pyrimidin-1-yl)-N-(methylsulfonyl)acetamide] | > 64 µg/mL | > 64 µg/mL | >64 µg/mL | > 64 µg/mL | > 64 µg/mL | > 64 µg/mL | > 64 µg/mL | > 64 µg/mL |  | 
CC(C)(C)OC(=O)N1CCN(CCOCCn2ncc3nc(NCc4ccc(Cl)c(Cl)c4)[nH]c(=O)c32)CC1 [Compound 166, tert-butyl 4-[2-[2-[5-[(3,4-dichlorophenyl)methylamino]-7-oxo-6H-pyrazolo[4,3-d]pyrimidin-1-yl]ethoxy]ethyl]piperazine-1-carboxylate] | 8 µg/mL (≈ 14.1 µM) | > 64 µg/mL | >64 µg/mL | 16 µg/mL (≈ 28.2 µM) | > 64 µg/mL | > 64 µg/mL | 4 µg/mL (≈ 7.06 µM) | > 64 µg/mL |  | 
O=c1[nH]c(NCc2ccc(Cl)c(Cl)c2)nc2cnn(CCOCCCO)c12 [Compound 168, 5-[(3,4-dichlorophenyl)methylamino]-1-[2-(3-hydroxypropoxy)ethyl]-6H-pyrazolo[4,3-d]pyrimidin-7-one] | 4 µg/mL (≈ 9.7 µM) | > 64 µg/mL | >64 µg/mL | 8 µg/mL (≈ 19.4 µM) | 8 µg/mL (≈ 19.4 µM) | 8 µg/mL (≈ 19.4 µM) | 4 µg/mL (≈ 9.7 µM) | 8 µg/mL (≈ 19.4 µM) |  | 
O=c1[nH]c(NCc2ccc(Cl)c(Cl)c2)nc2cnn(CCCOCCO)c12 [Compound 169, 5-[(3,4-dichlorophenyl)methylamino]-1-[3-(2-hydroxyethoxy)propyl]-6H-pyrazolo[4,3-d]pyrimidin-7-one] | 4 µg/mL (≈ 9.7 µM) | > 64 µg/mL | >64 µg/mL | 8 µg/mL (≈ 19.4 µM) | 8 µg/mL (≈ 19.4 µM) | 8 µg/mL (≈ 19.4 µM) | 2 µg/mL (≈ 4.85 µM) | 8 µg/mL (≈ 19.4 µM) |  | 
Cl.O=c1[nH]c(NCc2ccc(Cl)c(Cl)c2)nc2cnn(CCOc3cccnc3)c12 [Compound 170, 5-((3,4-dichlorobenzyl)amino)-1-(2-(pyridin-3-yloxy)ethyl)-1H-pyrazolo[4,3-d]pyrimidin-7(6H)-one hydrochloride] |  | > 64 µg/mL | >64. ug/ml | 8 µg/mL | 4 µg/mL | 4 µg/mL | 1 µg/mL |  | 4/1 | 2/2
O=c1[nH]c(NCc2ccc(Cl)c(Cl)c2)nc2cnn(Cc3coc(CO)n3)c12 [Compound 171, 5-((3,4-dichlorobenzyl)amino)-1-((2-(hydroxymethyl)oxazol-4-yl)methyl)-1H-pyrazolo[4,3-d]pyrimidin-7(6H)-one] | 8 µg/mL (≈ 19 µM) | > 64 µg/mL | >64 µg/mL | 8 µg/mL (≈ 19 µM) | 32 µg/mL (≈ 76 µM) | 16 µg/mL (≈ 38 µM) | 4 µg/mL (≈ 9.5 µM) | 16 µg/mL (≈ 38 µM) |  | 
CN1CCCC(c2nc(Cn3ncc4nc(NCc5ccc(Cl)c(Cl)c5)[nH]c(=O)c43)co2)C1.Cl (stereo not shown) [Compound 172, 5-((3,4-dichlorobenzyl)amino)-1-((2-(1-methylpiperidin-3-yl)oxazol-4-yl)methyl)-1H-pyrazolo[4,3-d]pyrimidin-7(6H)-one hydrochloride] | 8 µg/mL | > 64 µg/mL | 64 µg/mL | 8 µg/mL | 16 µg/mL | 16 µg/mL | 4 µg/mL | 16 µg/mL |  | 
Cl.O=c1[nH]c(NCc2ccc(Cl)c(Cl)c2)nc2cnn(Cc3coc(C4CCCNC4)n3)c12 (stereo not shown) [Compound 173, 5-((3,4-dichlorobenzyl)amino)-1-((2-(piperidin-3-yl)oxazol-4-yl)methyl)-1H-pyrazolo[4,3-d]pyrimidin-7(6H)-one hydrochloride] | 32 µg/mL | > 64 µg/mL | 64 µg/mL | 8 µg/mL | 32 µg/mL | 32 µg/mL | 8 µg/mL | 32 µg/mL |  | 
Cl.O=c1[nH]c(NCc2ccc(Cl)c(Cl)c2)nc2cnn(CCOc3ccc(CO)nc3)c12 [Compound 174, 5-((3,4-dichlorobenzyl)amino)-1-(2-((6-(hydroxymethyl)pyridin-3-yl)oxy)ethyl)-1H-pyrazolo[4,3-d]pyrimidin-7(6H)-one hydrochloride] |  | > 64 µg/mL | >64 µg/mL | 8 µg/mL | 8 µg/mL | 8 µg/mL | 2 µg/mL |  | 2/2 | 8/8
Cl.O=C(O)c1ccc(OCCn2ncc3nc(NCc4ccc(Cl)c(Cl)c4)[nH]c(=O)c32)cn1 [Compound 175, 5-(2-(5-((3,4-dichlorobenzyl)amino)-7-oxo-6,7-dihydro-1H-pyrazolo[4,3-d]pyrimidin-1-yl)ethoxy)picolinic acid hydrochloride] | > 64 µg/mL | > 64 µg/mL | >64 µg/mL | > 64 µg/mL | > 64 µg/mL | > 64 µg/mL | > 64 µg/mL | > 64 µg/mL |  | 
COCCN1CC(Cn2ncc3nc(NCc4ccc(Cl)c(Cl)c4)[nH]c(=O)c32)CC1=O (stereo not shown) [Compound 176, 5-((3,4-dichlorobenzyl)amino)-1-((1-(2-methoxyethyl)-5-oxopyrrolidin-3-yl)methyl)-1H-pyrazolo[4,3-d]pyrimidin-7(6H)-one] | 4 µg/mL (≈ 8.6 µM) | > 64 µg/mL | >64 µg/mL | 4 µg/mL (≈ 8.6 µM) | 16 µg/mL (≈ 34.4 µM) | 8 µg/mL (≈ 17.2 µM) | 4 µg/mL (≈ 8.6 µM) | 16 µg/mL (≈ 34.4 µM) |  | 
O=C1CC(Cn2ncc3nc(NCc4ccc(Cl)c(Cl)c4)[nH]c(=O)c32)CN1CCO (stereo not shown) [Compound 177, 5-((3,4-dichlorobenzyl)amino)-1-((1-(2-hydroxyethyl)-5-oxopyrrolidin-3-yl)methyl)-1H-pyrazolo[4,3-d]pyrimidin-7(6H)-one] | 16 µg/mL (≈ 35.5 µM) | > 64 µg/mL | >64 µg/mL | 4 µg/mL (≈ 8.86 µM) | 64 µg/mL (≈ 142 µM) | 32 µg/mL (≈ 70.9 µM) | 16 µg/mL (≈ 35.5 µM) | 64 µg/mL (≈ 142 µM) |  | 
O=c1[nH]c(NCc2ccc(Cl)c(Cl)c2)nc2cnn(CCOC3COC3)c12 [Compound 178, 5-((3,4-Dichlorobenzyl)amino)-1-(2-(oxetan-3-yloxy)ethyl)-1H-pyrazolo[4,3-d]pyrimidin-7(6H)-one] |  | > 64 µg/mL | >64 µg/mL | 4 µg/mL (≈ 9.75 µM) | 4 µg/mL (≈ 9.75 µM) | 8 µg/mL (≈ 19.5 µM) | 2 µg/mL (≈ 4.87 µM) |  | 4/4 | 4/4
